The values that follow come from patent US7125958B1, “Malaria polypeptides” (priority 1997, dated 2006).

For one data set, the system named is FCR3S1 rosettes. In words: Rosette disruption assay, laboratory strain FCR3S1. In kind it is cell-based, Plasmodium falciparum. As to conditions: for reduction of rosette disruption efficiency compared to native heparin: modified heparin; for rosette disrupting effect of heparin disaccharides: not shown; for rosette reversion by disaccharide: at 45 mM; for sensitivity of FCR3S1 rosettes to the compound: 30 minutes at 37° C. An excerpt:
(§1) Parasites and rosetting—Two distinct highly resetting P. Falciparum laboratory stains were used: FCR3S1 (previously named R^+PA1) and TM 284 (isolated in Thailand, 1990). Parasites were cultivated according to standard procedures (Udomsangpetch et al. 1989). Field isolates were obtained from patients attending the Albert Schweitzer Hospital, Lambaréné, Gabon between April and June 1996. […] A venous or capillary blood sample was taken after patients or parents informed consent. Blood was washed three times with RPMI and cultivated according to standard procedures (Udomsangpetch et al. 1989). Assessment for parasite growth and resetting was made every 6–8 hours using a Leitz UV-light microscope. Briefly, an aliquot of parasite culture was mixed with a small amount of acridine orange and the sample was analyzed. Assays were performed on rosetting isolates when the majority of parasites in culture had reached the trophozoite stage. The resetting rate was expressed as the number of infected erythrocytes in rosettes relative to the total number of late stage infected erythrocytes. Three hundred infected cells were counted. Parasitemia was calculated as the number of infected erythrocytes relative to the number of uninfected erythrocytes.
(§2) For laboratory stains, parasite cultures with rosetting rates of 50–70% and parasitemia 5–8% were used Aliquots (12.5–25 μl) of parasite cultures were mixed with equal amounts of sulfated glycoconjugate compound in RPMI in a 96-well microtiter plate, at final concentrations indicated After incubation for 30 minutes at 37° C. assessment for resetting was made as described above. The resetting rate was compared to that of culture mixed with RPMI.

In a further data set the test system is FCR3S1 rosetting. In kind it is cell-based, Plasmodium falciparum. Conditions: compared to mock treated control cultures.
The subject of data set [1] is uninfected RBC rosette binding capacity. It counts as cell-based, Plasmodium falciparum. As to conditions: compared to non-treated RBC.
Another data set relates to TM 284 rosetting. It counts as cell-based, Plasmodium falciparum. Conditions: compared to mock treated control cultures.
The test system of another data set is FCR3S1.2 rosettes. The data set is described as follows: Rosette disruption assay, FCR3S1.2. It counts as cell-based, Plasmodium falciparum. As to conditions: incubated with GAGs for 1 h at 37° C., compared to control culture. As for the experimental part: FIG. 5. Effect of glycosaminoglycans (GAGS) on P. falciparum resetting. […] FCR3S1.2 cultures were incubated with GAGs for 1 h at 37° C. and compared to control culture. Results are the means and standard error of three separate experiments.
The assay was performed essentially as described (Carlson, J. and M. Wahlgren, 1992. Plasmodium falciparum erythrocytes resetting is mediated by promiscuous lectin-like interactions. J. Exp. Med., 176, 1311–1317). The recombinant fission proteins ([…] in PBS of DBL-1-GST or ATS-GST) were added to 25 μl aliquots of a ≈80% rosetting culture of FCR3S1.2 in a micro-titre plate. The mixtures were incubated for 30 min. at 37° C. after which the rosetting rate was scored and compared to mock treated controls after staining with acridine orange.

Data set [2] concerns DBL-1-GST fusion protein (FCR3S1.2-PfEMP1). The data set is described as follows: Heparin blocking assay: inhibition of DBL-1-GST binding to heparin-sepharose by GAGs. Details: species or system Plasmodium falciparum. As to conditions: GAG titrated from 10 to 0.5 mg/ml, SDS-PAGE. As for the experimental part:
The potential binding of the fusion proteins to heparin was studied by mixing either DBL-1-GST, ATS-GST fusion protein or GST alone (20 μl, 150 μg/ml in PBS) with 20 μl of 50% heparin-sepharose (Pharmacia) and incubating for 5 min at room temperature in the absence of serum; binding to uncoupled sepharose was used as control. The heparin-sepharose and protein mixture was washed 3 times in large volumes of PBST buffer (PBS plus 0.05% Tween-20) before extracting bound proteins in loading-buffer for 10% SDS-PAGE. Inhibition of DBL-1-GST fission protein binding to heparin with heparin, heparan sulfate or chondroitin sulfate (Lövens Kemiske Fabrik, Denmark, more than 90% pure) was also tested. Twenty μl of 150 μg/ml DBL-1-GST fusion protein was mixed separately for 5 minutes with an equal volume of heparin, heparan sulfate, or chondroitin sulfate, titrated from 10 to 0.5 mg/ml, before the addition of heparin sepharose. The inhibitory activities were checked by SDS-PAGE.

Data set [3] relates to rosettes of wild isolates. In words: Rosette disruption assay, wild (patient) isolates. It counts as cell-based, Plasmodium falciparum. Conditions: for relative effectiveness as rosette disrupter on the whole collection of wild isolates: thirtytwo patient isolates; for rosette disruption of wild / fresh isolates: both groups of isolates.
Text: as §1, §2

Another data set deals with TM 284 rosettes. In words: Rosette disruption assay, laboratory strain TM 284. In kind it is cell-based, Plasmodium falciparum. Conditions: for sensitivity of TM 284 rosettes to the compound: relative to FCR3S1.
Text: as §1, §2

Data set [4] relates to DBL-1-GST fusion protein (FCR3S1.2-PfEMP1). The data set is described as follows: Erythrocyte blocking assay: inhibition of DBL-1-GST binding to RBC by GAGs. Conditions: GAG titrated from 20 to 8 mg/ml. It counts as cell-based, Plasmodium falciparum. As for the experimental part:
Ten-well immunofluorescence glass-slides were precoated with 10% poly-L-lysine in PBS for 30 min. Monolayers of RBC were made by addition of 20 μl of 0.5% 3× washed bloodgroup O Rh^+RBC in PBS to each well. Twenty μl DBL-1-GST, ATS-GST or GST alone (80 μg/ml) in PBS was added to the wells for 30 min. The DBL-1-GST fusion protein was in subsequent experiments incubated in the presence of heparin, heparan sulfate or chondroitin sulfate (titrated from 20 to 8 mg/ml) to study the inhibitory activity of each GAG. Slides were washed 3 times with PBS and the fusion protein-binding was detected with the biotin-labelled anti-GST mAb and an EXTRAVIDIN (a modified avidin) FITC conjugate (Sigma). The fluorescence was assessed in a Nikon Optiphot-2 UV microscope, using a ×10 ocular and an oil lens with a magnification of ×100.

The subject of data set [5] is rosettes of fresh P. falciparum-isolates. As to conditions: cited from earlier work.

“Also recorded” adds a separate entry of the source. Like-named read-outs stand apart in the source and are kept apart here.

2-O-desulfated heparin: the “reduction of rosette disruption efficiency compared to native heparin” value with FCR3S1 rosettes is recorded as roughly 10 fold.

6-O-desulfated heparin: the “reduction of rosette disruption efficiency compared to native heparin” value with FCR3S1 rosettes is roughly 10 fold.

In the case of `O=C(O)C1=C[C@H](O)[C@@H](OS(=O)(=O)O)[C@H](O[C@H]2[C@H](O)[C@@H](NS(=O)(=O)O)[C@@H](O)O[C@@H]2COS(=O)(=O)O)O1` [I-S, ΔHexA(2-OSO3)-GlcNSO3(6-OSO3)], the “rosette disruption by disaccharide titrated against heparin” value with FCR3S1 rosettes (30 mM disaccharide, preliminary experiment) is recorded as “disrupted to the same extent as with heparin at 1 mg/ml”.

With `N[C@H]1C(O)O[C@H](COS(=O)(=O)O)[C@@H](O[C@@H]2OC(C(=O)O)=C[C@H](O)[C@H]2O)[C@@H]1O` (stereo partly drawn) [II-H, ΔHexA-GlcN(6-OSO3)], the “rosette disrupting effect of heparin disaccharides” value (from here on “rosette disrupting effect”) in the data set with FCR3S1 rosettes is “no rosette disrupting effect”.

For `NC1C(O)OC(CO)C(OC2OC(C(=O)O)=CC(O)C2OS(=O)(=O)O)C1O` (stereo not drawn) [III-H, ΔHexA(2-OSO3-GlcN)], in the data set on FCR3S1 rosettes, the “rosette disrupting effect” value is “no rosette disrupting effect”.

In the case of `CC(=O)NC1C(O)OC(CO)C(OC2OC(C(=O)O)=CC(O)C2O)C1O` (stereo not drawn) [IV-A, ΔHexA-ClcNAc], the “rosette reversion by disaccharide” value with FCR3S1 rosettes is given as “completely lacked effect”.

As for `N[C@H]1C(O)O[C@H](CO)[C@@H](O[C@@H]2OC(C(=O)O)=C[C@H](O)[C@H]2O)[C@@H]1O` (stereo partly drawn) [IV-H, ΔHexA-GlcN], the “rosette disrupting effect” value in the data set on FCR3S1 rosettes is recorded as “no rosette disrupting effect”.

Regarding `O=C(O)C1=C[C@H](O)[C@@H](O)[C@H](O[C@H]2[C@H](O)[C@@H](NS(=O)(=O)O)C(O)O[C@@H]2CO)O1` (stereo partly drawn) [IV-S, ΔHexA-GlcNSO3], in the data set with FCR3S1 rosettes, the “rosette reversion by disaccharide” value is given as “complete rosette reversion”.

As for `CC(=O)N[C@H]1C(O)O[C@H](COS(=O)(=O)O)[C@@H](O)[C@@H]1O` (stereo partly drawn) [N-acetylated glucosamine with an O-sulfate ester at C-6], the “rosette disrupting activity of monosaccharides” value (“rosette disrupting activity” below) in the data set with FCR3S1 rosettes was “Some activity”.

As for `O=S(=O)(O)NC1C(O)OC(CO)C(O)C1O` (stereo not drawn) [N-sulfated galactosamine], in the data set on FCR3S1 rosettes, the “rosette disrupting activity” value is “lacked rosette disrupting activity and none and does not”.

Regarding `O=S(=O)(O)N[C@H]1C(O)O[C@H](CO)[C@@H](O)[C@@H]1O` (stereo partly drawn) [N-sulfated glucosamine], the figures for the “rosette disrupting activity” value in the data set on FCR3S1 rosettes and in the data set with FCR3S1 rosettes (listed as N-sulfated mono-saccharide glucosamine) were “total rosette disruption; also recorded: abolishes rosetting” and “good anti-rosetting activity”, respectively.

In the case of `[O-][I+3]([O-])([O-])O` [Sodium periodate], the “change in rosetting after treatment of whole cultures, FCR3S1” value (“change in rosetting … FCR3S1” for short) with FCR3S1 rosetting was “intermediate effect”. In data set [1], the “decrease of rosette binding capacity of treated uninfected RBC” value was 4 fold. For the same molecule, the “change in rosetting after treatment of whole cultures, TM 284” value (shortened to “change in rosetting … TM 284”) in the data set on TM 284 rosetting is “intermediate effect”.

In the case of Chondroitin sulfate B, in the data set on FCR3S1.2 rosettes, the “disruptive activity of GAGs on FCR3S1.2 rosettes” value (“disruptive activity of GAGs” below) was “slight effect only at high concentrations”.

chondroitin sulfate: in the data set on FCR3S1 rosettes, the “sensitivity of FCR3S1 rosettes to the compound” value (shortened to “sensitivity of FCR3S1 rosettes”) is recorded as “little or no effect”. Also, the “inhibition of DBL-1-GST binding to heparin-sepharose” value (shortened to “inhibition … to heparin-sepharose”) in data set [2] was “but not with chondroitin sulfate”. For the same molecule, the “relative effectiveness as rosette disrupter on the whole collection of wild isolates” value (“relative effectiveness” for short) in data set [3] was “the least effective”. Moreover, the “sensitivity of TM 284 rosettes to the compound” value (from here on “sensitivity of TM 284 rosettes”) with TM 284 rosettes is on record as “relatively higher sensitivity”.

Consider chondroitin sulfate A, for which, in the data set on FCR3S1.2 rosettes, the “disruptive activity of GAGs” value is reported as “neither chondroitin sulfate A, keratan sulfate, nor hyaluronic acid had any effect”.

Take chymotrypsin: in the data set with FCR3S1 rosetting, the “change in rosetting … FCR3S1” value is “rosetting was abolished completely”. Also, the “change in rosetting … TM 284” value with TM 284 rosetting is “rosetting was abolished completely”.

With dermatan sulfate, the “sensitivity of FCR3S1 rosettes” value in the data set on FCR3S1 rosettes is “little or no effect”. For the same molecule, the “relative effectiveness” value in data set [3] is reported as “intermediate position”. Further, in the data set on TM 284 rosettes, the “sensitivity of TM 284 rosettes” value is “relatively higher sensitivity”.

Take dextran sulfate: in data set [3], the “rosette disruption of wild / fresh isolates” value is reported as “much less effective that GAGs in most of the strains” and the “relative effectiveness” value is reported as “intermediate position”.

With fucoidan, in data set [3], the “rosette disruption of wild / fresh isolates” value was “strong rosette disrupter; also recorded: disrupted rosettes of almost all fresh isolates” and the “relative effectiveness” value was “most effective rosette disrupter for most isolates”.

On to heparan sulfate, for which the “sensitivity of FCR3S1 rosettes” value in the data set with FCR3S1 rosettes is on record as “high sensitivity”. Further, the “inhibition … to heparin-sepharose” value in data set [2] was “dose-dependently be competed out”. For the same molecule, in the data set with FCR3S1.2 rosettes, the “disruptive activity of GAGs” value was “sensitive”. Further, the “relative effectiveness” value in data set [3] is “intermediate position”. Moreover, the “sensitivity of TM 284 rosettes” value with TM 284 rosettes is on record as “less sensitive”. In addition, the “inhibition of DBL-1-GST binding to erythrocytes” value in data set [4] is given as “could be inhibited with small amounts”.

With heparin, the “sensitivity of FCR3S1 rosettes” value in the data set with FCR3S1 rosettes is reported as “high sensitivity”. Further, the “efficiency of heparin chain relative to disaccharide I-S, weight basis” value in the data set on FCR3S1 rosettes (heparin 1 mg/ml vs I-S 30 mM) is reported as “around 20 fold”. Besides, the “efficiency of heparin chain relative to disaccharide I-S, molar basis” value in the data set on FCR3S1 rosettes (heparin ≃70 μM vs I-S 30 mM) is given as “around 500 fold”. The “inhibition … to heparin-sepharose” value in [2] is recorded as “dose-dependently be competed out”. For the same molecule, the “disruptive activity of GAGs” value in the data set with FCR3S1.2 rosettes is given as “sensitive”. For the same molecule, in [5] (54 fresh isolates), the “fresh isolates whose rosettes were disrupted” value was 50%. The “number of fresh isolates whose rosettes were disrupted” value in [5] (out of 54 fresh isolates) is 27. In data set [3], the “relative effectiveness” value is reported as “intermediate position”. In the data set on TM 284 rosettes (at 1 mg/ml (not shown)), the rosettes disrupted is recorded as 80%. Further, the “sensitivity of TM 284 rosettes” value with TM 284 rosettes is reported as “less sensitive”. The “inhibition of DBL-1-GST binding to erythrocytes” value in data set [4] is reported as “could be inhibited with small amounts”.

Turning to hyaluronic acid, the “disruptive activity of GAGs” value in the data set on FCR3S1.2 rosettes is “neither chondroitin sulfate A, keratan sulfate, nor hyaluronic acid had any effect”.

With keratan sulfate, in the data set with FCR3S1.2 rosettes, the “disruptive activity of GAGs” value is on record as “neither chondroitin sulfate A, keratan sulfate, nor hyaluronic acid had any effect”.

As for trypsin, in the data set with FCR3S1 rosetting, the “change in rosetting … FCR3S1” value is listed as “rosetting was abolished completely”. Moreover, the “change in rosetting … TM 284” value in the data set on TM 284 rosetting is given as “rosetting was abolished completely”.
